Experimental data published in US20240382465A1, “AROMATIC ACETYLENE DERIVATIVE, AND PREPARATION METHOD THEREFOR AND USE THEREOF” (priority 2021, published 2024).
Values after ≈ are worked out from the molar mass of the structure shown. Read-outs that look alike come from different tables or passages of the source.

Key:
E. coli ATCC 25922 = test: Antibacterial activity, MIC by broth microdilution (CLSI); format: cell-based; details: Escherichia coli, ATCC25922; E. coli ATCC 25922, 35° C., 18 to 24 hours; read-out: MIC(E. coli)
Procedure, shortened: (§1)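 Broth microdilution per CLSI, compound at 64-0.06 μg/mL final in twofold steps (1% DMSO from 100× working solutions). Inoculum 5×10^5 cfu/ml; plates incubated at 35° C for 18-24 hours.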

K. pneumoniae ATCC13883 = test: as above; format: cell-based; details: Klebsiella pneumoniae; K. pneumoniae ATCC13883, 35° C., 18 to 24 hours; read-out: MIC(K. Pneumoniae)
Procedure, shortened: as §1

[1] = target: recombinant Pseudomonas aeruginosa LpxC (Pseudomonas aeruginosa (strain ATCC 15692 / DSM 22644 / CIP 104116 / JCM 14847 / LMG 12228 / 1C / PRS 101 / PAO1), UniProt P47205); test: Inhibition of LpxC enzymatic activity (fluorescamine assay); format: biochemical
Procedure, shortened: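 Recombinant P. aeruginosa LpxC (5 nM) with substrate UDP-3-O-(R-3-hydroxydecanoyl)-GlcNAc (10 μM), 120 min at 25 °C; compound 8 points, 4-fold dilution, 0.61-10,000 nM. Product detected by fluorescamine (ex 390/em 495 nm) after stopping with pH 8.0 phosphate; % inhibition versus DMSO control.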

[2] = recombinant P. aeruginosa LpxC 5 nM, substrate 10 μM, 25° C., 120 minutes, read-out: IC50

C[C@H](O)c1nccn1Cc1cc(-c2ccc(C#Cc3ccc(CN4CCC(O)CC4)nc3)cc2)on1 [Example 36, (S)-1-((5-((4-(3-((2-(1-hydroxyethyl)-1H-imidazol-1-yl)methyl)isoxazol-5-yl)phenyl)ethynyl)pyridin-2-yl)methyl)piperidin-4-ol]
MIC (E. coli ATCC 25922): 2 µg/mL (≈ 4.14 µM) | MIC (K. pneumoniae ATCC13883): 4 µg/mL (≈ 8.27 µM) | IC50 [1, 2]: 8.33 nM

C[C@H](O)c1nccn1Cc1cc(-c2ccc(C#Cc3ccc(CO)nc3)cc2)on1 [Example 37, (S)-1-(1-((5-(4-((6-(hydroxymethyl)pyridin-3-yl)ethynyl)phenyl)isoxazol-3-yl)methyl)-1H-imidazol-2-yl)ethan-1-ol]
MIC (E. coli ATCC 25922): 1 µg/mL (≈ 2.5 µM) | MIC (K. pneumoniae ATCC13883): 2 µg/mL (≈ 4.99 µM) | IC50 [1, 2]: 3.55 nM

C[C@H](O)c1nccn1Cc1cc(-c2ccc(C#Cc3cccc(OCC#N)c3)cc2)on1 [Example 38, (S)-2-(3-((4-(3-((2-(1-hydroxyethyl)-1H-imidazol-1-yl)methyl)isoxazol-5-yl)phenyl)ethynyl)phenoxy)acetonitrile]
MIC (E. coli ATCC 25922): 0.5 µg/mL (≈ 1.18 µM) | MIC (K. pneumoniae ATCC13883): 1 µg/mL (≈ 2.36 µM) | IC50 [1, 2]: 50.8 nM

C[C@H](O)c1nccn1Cc1cc(-c2ccc(C#Cc3ccc(CC(=O)O)nc3)cc2)on1 [Example 39, (S)-2-(5-((4-(3-((2-(1-hydroxyethyl)-1H-imidazol-1-yl)methyl)isoxazol-5-yl)phenyl)ethynyl)pyridin-2-yl)acetic acid]
MIC (E. coli ATCC 25922): 0.5 µg/mL (≈ 1.17 µM) | MIC (K. pneumoniae ATCC13883): 1 µg/mL (≈ 2.33 µM) | IC50 [1, 2]: 19.9 nM

C[C@H](O)c1nccn1Cc1cc(-c2ccc(C#Cc3ccc(CCC(N)=O)nc3)cc2)on1 [Example 40, (S)-3-(5-((4-(3-((2-(1-hydroxyethyl)-1H-imidazol-1-yl)methyl)isoxazol-5-yl)phenyl)ethynyl)pyridin-2-yl)propanamide]
MIC (E. coli ATCC 25922): 1 µg/mL (≈ 2.27 µM) | MIC (K. pneumoniae ATCC13883): 4 µg/mL (≈ 9.06 µM) | IC50 [1, 2]: 16.7 nM

C[C@H](O)c1nccn1Cc1cc(-c2ccc(C#Cc3ccc(C(=O)N4CCN(C)CC4)cc3)cc2)on1 [Example 42, (S)-(4-((4-(3-((2-(1-hydroxyethyl)-1H-imidazol-1-yl)methyl)isoxazol-5-yl)phenyl)ethynyl)phenyl)(4-methylpiperazin-1-yl)methanone]
MIC (E. coli ATCC 25922): 2 µg/mL (≈ 4.04 µM) | MIC (K. pneumoniae ATCC13883): 4 µg/mL (≈ 8.07 µM) | IC50 [1, 2]: 5.78 nM

CNC(=O)c1ccc(C#Cc2ccc(-c3cc(Cn4ccnc4[C@H](C)O)no3)cc2)cc1 [Example 43, (S)-4-((4-(3-((2-(1-hydroxyethyl)-1H-imidazol-1-yl)methyl)isoxazol-5-yl)phenyl)ethynyl)-N-methylbenzamide]
MIC (E. coli ATCC 25922): 1 µg/mL (≈ 2.34 µM) | MIC (K. pneumoniae ATCC13883): 8 µg/mL (≈ 18.8 µM) | IC50 [1, 2]: 36.7 nM

C[C@H](O)c1nccn1Cc1cc(-c2ccc(C#Cc3ccc(OC4CCN(C)CC4)cc3)cc2)on1 [Example 44, (S)-1-(1-((5-(4-((4-((1-methylpiperidin-4-yl)oxy)phenyl)ethynyl)phenyl)isoxazol-3-yl)methyl)-1H-imidazol-2-yl)ethan-1-ol]
MIC (E. coli ATCC 25922): 2 µg/mL (≈ 4.14 µM) | MIC (K. pneumoniae ATCC13883): 8 µg/mL (≈ 16.6 µM) | IC50 [1, 2]: 18.6 nM

C[C@H](O)c1nccn1Cc1cc(-c2ccc(C#Cc3ccc(CO)cc3)cc2)on1 [Example 46, (S)-1-(1-((5-(4-((4-(hydroxymethyl)phenyl)ethynyl)phenyl)isoxazol-3-yl)methyl)-1H-imidazol-2-yl)ethan-1-ol]
MIC (E. coli ATCC 25922): 0.25 µg/mL (≈ 0.626 µM) | MIC (K. pneumoniae ATCC13883): 0.5 µg/mL (≈ 1.25 µM) | IC50 [1, 2]: 23 nM

C[C@H](O)c1nccn1Cc1cc(-c2ccc(C#Cc3ccc(CN4CCN(C)CC4)cc3)cc2)on1 [Example 48, (S)-1-(1-((5-(4-((4-((4-methylpiperazin-1-yl)methyl)phenyl)ethynyl)phenyl)isoxazol-3-yl)methyl)-1H-imidazol-2-yl)ethan-1-ol]
MIC (E. coli ATCC 25922): 2 µg/mL (≈ 4.15 µM) | MIC (K. pneumoniae ATCC13883): 8 µg/mL (≈ 16.6 µM) | IC50 [1, 2]: 9.77 nM

C[C@H](O)c1nccn1Cc1cc(-c2ccc(C#Cc3ccc(CNCCS(C)(=O)=O)cc3)cc2)on1 [Example 49, (S)-1-(1-((5-(4-((4-(((2-(methylsulfonyl)ethyl)amino)methyl)phenyl)ethynyl)phenyl)isoxazol-3-yl)methyl)-1H-imidazol-2-yl)ethan-1-ol]
MIC (E. coli ATCC 25922): 1 µg/mL (≈ 1.98 µM) | MIC (K. pneumoniae ATCC13883): 4 µg/mL (≈ 7.93 µM) | IC50 [1]: 11.1 nM

C[C@H](O)c1nccn1Cc1cc(-c2ccc(C#Cc3ccc(CN4CCS(=O)(=O)CC4)cc3)cc2)on1 [Example 50, (S)-4-(4-((4-(3-((2-(1-hydroxyethyl)-1H-imidazol-1-yl)methyl)isoxazol-5-yl)phenyl)ethynyl)benzyl)thiomorpholine 1,1-dioxide]
MIC (E. coli ATCC 25922): 2 µg/mL (≈ 3.87 µM) | MIC (K. pneumoniae ATCC13883): 4 µg/mL (≈ 7.74 µM) | IC50 [1, 2]: 22.2 nM

C[C@H](O)c1nccn1Cc1cc(-c2ccc(C#Cc3ccc(CN4CCC(N5CCOCC5)CC4)cc3)cc2)on1 [Example 51, (S)-1-(1-((5-(4-((4-((4-morpholinopiperidin-1-yl)methyl)phenyl)ethynyl)phenyl)isoxazol-3-yl)methyl)-1H-imidazol-2-yl)ethan-1-ol]
MIC (E. coli ATCC 25922): 2 µg/mL (≈ 3.63 µM) | MIC (K. pneumoniae ATCC13883): 8 µg/mL (≈ 14.5 µM) | IC50 [1, 2]: 6.7 nM

C[C@H](O)c1nccn1Cc1cc(-c2ccc(C#Cc3ccc(CN4CC(C#N)C4)cc3)cc2)on1 [Example 52, (S)-1-(4-((4-(3-((2-(1-hydroxyethyl)-1H-imidazol-1-yl)methyl)isoxazol-5-yl)phenyl)ethynyl)benzyl)azetidin-3-carbonitrile]
MIC (E. coli ATCC 25922): 0.25 µg/mL (≈ 0.539 µM) | MIC (K. pneumoniae ATCC13883): 1 µg/mL (≈ 2.16 µM) | IC50 [1, 2]: 11.2 nM

C[C@H](O)c1nccn1Cc1cc(-c2ccc(C#Cc3ccc(CN4CC(C(N)=O)C4)cc3)cc2)on1 [Example 53, (S)-1-(4-((4-(3-((2-(1-hydroxyethyl)-1H-imidazol-1-yl)methyl)isoxazol-5-yl)phenyl)ethynyl)benzyl)azetidin-3-carboxamide]
MIC (E. coli ATCC 25922): 1 µg/mL (≈ 2.08 µM) | MIC (K. pneumoniae ATCC13883): 4 µg/mL (≈ 8.31 µM) | IC50 [1, 2]: 13.7 nM

C[C@H](O)c1nccn1Cc1cc(-c2ccc(C#Cc3ccc(CN4CCNC(=O)C4)cc3)cc2)on1 [Example 54, (S)-4-(4-((4-(3-((2-(1-hydroxyethyl)-1H-imidazol-1-yl)methyl)isoxazol-5-yl)phenyl)ethynyl)benzyl)piperazin-2-one]
MIC (E. coli ATCC 25922): 2 µg/mL (≈ 4.15 µM) | MIC (K. pneumoniae ATCC13883): 4 µg/mL (≈ 8.31 µM) | IC50 [1, 2]: 16.2 nM

C[C@H](O)c1nccn1Cc1cc(-c2ccc(C#Cc3ccc(CNCCC(=O)O)cc3)cc2)on1 [Example 55, (S)-3-((4-((4-(3-((2-(1-hydroxyethyl)-1H-imidazol-1-yl)methyl)isoxazol-5-yl)phenyl)ethynyl)benzyl)amino)propanoic acid]
MIC (E. coli ATCC 25922): 8 µg/mL (≈ 17 µM) | MIC (K. pneumoniae ATCC13883): 8 µg/mL (≈ 17 µM) | IC50 [1, 2]: 24.4 nM

C[C@H](O)c1nccn1Cc1cc(-c2ccc(C#Cc3ccc(CN4CCC(CO)CC4)cc3)cc2)on1 [Example 56, (S)-1-(1-((5-(4-((4-((4-(hydroxymethyl)piperidin-1-yl)methyl)phenyl)ethynyl)phenyl)isoxazol-3-yl)methyl)-1H-imidazol-2-yl)ethan-1-ol]
MIC (E. coli ATCC 25922): 2 µg/mL (≈ 4.03 µM) | MIC (K. pneumoniae ATCC13883): 4 µg/mL (≈ 8.05 µM) | IC50 [1, 2]: 14.7 nM

C[C@H](O)c1nccn1Cc1cc(-c2ccc(C#Cc3ccc(CNCCN)cc3)cc2)on1 [Example 57, (S)-1-(1-((5-(4-((4-(((2-aminoethyl)amino)methyl)phenyl)ethynyl)phenyl)isoxazol-3-yl)methyl)-1H-imidazol-2-yl)ethan-1-ol]
MIC (E. coli ATCC 25922): 2 µg/mL (≈ 4.53 µM) | MIC (K. pneumoniae ATCC13883): 4 µg/mL (≈ 9.06 µM) | IC50 [1, 2]: 14.1 nM

C[C@H](O)c1nccn1Cc1cc(-c2ccc(C#Cc3ccc(CCC(=O)O)nc3)cc2)on1 [Example 58, (S)-3-(5-((4-(3-((2-(1-hydroxyethyl)-1H-imidazol-1-yl)methyl)isoxazol-5-yl)phenyl)ethynyl)pyridin-2-yl)propanoic acid]
MIC (E. coli ATCC 25922): 4 µg/mL (≈ 9.04 µM) | MIC (K. pneumoniae ATCC13883): 8 µg/mL (≈ 18.1 µM) | IC50 [1, 2]: 22 nM

C[C@H](O)c1nccn1Cc1cc(-c2ccc(C#Cc3ccc(CNCCS(C)(=O)=O)nc3)cc2)on1 [Example 59, (S)-1-(1-((5-(4-((6-(((2-(methylsulfonyl)ethyl)amino)methyl)pyridin-3-yl)ethynyl)phenyl)isoxazol-3-yl)methyl)-1H-imidazol-2-yl)ethan-1-ol]
MIC (E. coli ATCC 25922): 2 µg/mL (≈ 3.96 µM) | MIC (K. pneumoniae ATCC13883): 8 µg/mL (≈ 15.8 µM) | IC50 [1, 2]: 21.8 nM

C[C@H](O)c1nccn1Cc1cc(-c2ccc(C#Cc3ccc(CNCCO)nc3)cc2)on1 [Example 60]
MIC (E. coli ATCC 25922): 2 µg/mL (≈ 4.51 µM) | MIC (K. pneumoniae ATCC13883): 4 µg/mL (≈ 9.02 µM) | IC50 [1, 2]: 26.4 nM

C[C@H](O)c1nccn1Cc1cc(-c2ccc(C#Cc3ccc(CNCC(N)=O)nc3)cc2)on1 [Example 61]
MIC (E. coli ATCC 25922): 1 µg/mL (≈ 2.19 µM) | MIC (K. pneumoniae ATCC13883): 4 µg/mL (≈ 8.76 µM) | IC50 [1, 2]: 74.2 nM

C[C@H](O)c1nccn1Cc1cc(-c2ccc(C#Cc3ccc(CC(N)=O)nc3)cc2)on1 [Example 62, (S)-2-(5-((4-(3-((2-(1-hydroxyethyl)-1H-imidazol-1-yl)methyl)isoxazol-5-yl)phenyl)ethynyl)pyridin-2-yl)acetamide]
MIC (E. coli ATCC 25922): 1 µg/mL (≈ 2.34 µM) | MIC (K. pneumoniae ATCC13883): 4 µg/mL (≈ 9.36 µM) | IC50 [1, 2]: 21.3 nM

C[C@H](O)c1nccn1Cc1cc(-c2ccc(C#Cc3cccc(C(N)=O)c3)cc2)on1 [Example 63, (S)-3-((4-(3-((2-(1-hydroxyethyl)-1H-imidazol-1-yl)methyl)isoxazol-5-yl)phenyl)ethynyl)benzamide]
MIC (E. coli ATCC 25922): 2 µg/mL (≈ 4.85 µM) | MIC (K. pneumoniae ATCC13883): 4 µg/mL (≈ 9.7 µM) | IC50 [1, 2]: 65.1 nM

C[C@H](O)c1nccn1Cc1cc(-c2ccc(C#Cc3cccc(OCC(N)=O)c3)cc2)on1 [Example 64, (S)-2-(3-((4-(3-((2-(1-hydroxyethyl)-1H-imidazol-1-yl)methyl)isoxazol-5-yl)phenyl)ethynyl)phenoxy)acetamide]
MIC (E. coli ATCC 25922): 4 µg/mL (≈ 9.04 µM) | MIC (K. pneumoniae ATCC13883): 2 µg/mL (≈ 4.52 µM) | IC50 [1, 2]: 21.6 nM
